Article PMC11459967 (Antimicrobial Agents and Chemotherapy, 2024)

Experiments:
[1] = test system: SARS-CoV-2 (USA-WA1/2020 variant); assay: Cytopathic effect (CPE) live virus cell viability assay in Vero-E6 cells; type: cell-based; conditions: for EC50: Severe acute respiratory syndrome coronavirus 2, Vero C1008, 96 h, read-out: EC50 viral CPE assay
SARS-CoV-2 Mpro = SARS-CoV-2 Mpro (Severe acute respiratory syndrome coronavirus 2, UniProt P0DTC1); assay: biochemical; type: biochemical

## O=C(CN1C(=O)C(NC(=O)OCc2ccccc2)COc2ccccc21)NC(CC1CCNC1=O)C(=O)COC(=O)c1c(Cl)cccc1Cl (centres unmarked) [Compound 1]
[1]
  fold reduced in activity compared to 18: 2.2 fold
  fold reduced in activity compared to GC-376: 4.1 fold
  EC50: 7500 ± 2000 nM
[1]; Severe acute respiratory syndrome coronavirus 2, Vero C1008, single treatment, 5 µM of 1, 96 h, three independent experiments, read-out: inhibition of CPE in infected cells
  inhibition at 5 µM: 19.5 ± 13.7%
SARS-CoV-2 Mpro
  IC50: 230 ± 18 nM
SARS-CoV-2 Mpro; ratio of Mpro IC50 versus Pfizer lead compound 18
  fold less potent (Mpro) than compound 18: ~ 20 fold

## COc1cccc2[nH]c(C(=O)N[C@@H](CC(C)C)C(=O)N[C@@H](C[C@@H]3CCNC3=O)C(=O)COC(=O)c3c(Cl)cccc3Cl)cc12 [Compound 18, reference compound]
[1]
  EC50: 3400 ± 1400 nM
SARS-CoV-2 Mpro
  IC50: 11 ± 0.7 nM

## O=C(CN1C(=O)[C@@H](NC(=O)c2ccccc2)COc2ccccc21)N[C@@H](C[C@@H]1CCNC1=O)C(=O)COC(=O)c1c(Cl)cccc1Cl [Compound 19]
[1]
  EC50: 25000 ± 5000 nM
SARS-CoV-2 Mpro
  IC50: 620 ± 48 nM

## O=C(CN1C(=O)[C@@H](NC(=O)c2ccc3ccccc3n2)COc2ccccc21)N[C@@H](C[C@@H]1CCNC1=O)C(=O)COC(=O)c1c(Cl)cccc1Cl [Compound 20]
[1]
  EC50: 44500 ± 7400 nM
SARS-CoV-2 Mpro
  IC50: 580 ± 40 nM

## O=C(CN1C(=O)[C@@H](NC(=O)OCc2ccccc2)COc2ccccc21)N[C@@H](C[C@@H]1CCNC1=O)C(=O)COc1cc(C(F)(F)F)nn1-c1ccc(F)cc1 [Compound 21]
[1]
  EC50: 73500 ± 12400 nM
SARS-CoV-2 Mpro
  IC50: 3100 nM
SARS-CoV-2 Mpro; ratio of Mpro IC50 versus compound 1
  fold less Mpro activity compared to 1: more than 10 fold

## CC(C)C[C@H](NC(=O)OCc1ccccc1)C(=O)N[C@@H](C[C@@H]1CCNC1=O)C(O)S(=O)(=O)O (some centres unmarked) [GC-376, reference compound]
[1]
  EC50: 1800 ± 400 nM
SARS-CoV-2 Mpro
  IC50: 18 ± 1.5 nM
SARS-CoV-2 Mpro; Mpro enzymatic assay
  time to achieve maximum inhibition: ≤ 10 min

## CCC(CC)COC(=O)[C@H](C)N[P@](=O)(OC[C@H]1O[C@@](C#N)(c2ccc3c(N)ncnn23)[C@H](O)[C@@H]1O)Oc1ccccc1 [Remdesivir, reference compound]
[1]
  EC50: 2700 ± 500 nM
[1]; Severe acute respiratory syndrome coronavirus 2, Vero C1008, single treatment, 1 µM of remdesivir, 96 h, three independent experiments, read-out: inhibition of CPE in infected cells
  inhibition at 1 µM: 3.6 ± 3.1%
